Data set [1] deals with Rat Paw Edema. Put plainly: Rat Paw Edema. Format: in vivo. The settings on record: Dose (mg/kg): Example 11 80; Example 12 121.
The nature of data set [2]: In Vitro Hydrolysis in Rat Plasma. Type of data set: in vitro ADME.
Data set [3] can be described thus: Chemical Hydrolysis. Type of data set: physicochemical.

Regarding `COc1ccc2cc(CC(=O)NO)ccc2c1` [Example 11, N-Hydroxy-2-(6-methoxy-naphthalen-2-yl)-acetamide], the “Rat Paw Edema % Inhibition” value in data set [1] was 59.6%.
As to `COc1ccc2cc(CC(=O)OCCOCCO[N+](=O)[O-])ccc2c1` [Example 2, (6-Methoxy-naphthalen-2-yl)-acetic acid 2-(2-nitrooxy-ethoxy)-ethyl ester], the half-life in data set [2] (column head pH 3, read-out: In Vitro Hydrolysis in Rat Plasma: T1/2) was > 5 min; in data set [3] (pH 3), > 300 h; in data set [3] (pH 7.4), ~280 h; in data set [3] (pH 8) it was ~280 h.
Turning to `COc1ccc2cc(CC(=O)OCC(C)=O)ccc2c1` [Example 1, (6-methoxy-naphthalen-2-yl)-acetic acid 2-oxo-propyl ester], the metabolised at 2 h in data set [2] (in ˜2 h, column head pH 3, read-out: In Vitro Hydrolysis in Rat Plasma: conversion to 6-MNA) worked out at 21%. Further, the values for the half-life in data set [3] (pH 3), in data set [3] (pH 7.4) and in data set [3] (pH 8) were > 25 h, 22 h and 7 h, respectively.

Values taken from patent US6552078B2, “6-methoxy-2-naphthylacetic acid prodrugs” (priority 1999, dated 2003).
